The text below walks through data of US20240025906A1 (NEURON23, INC., priority 2022, published 2024).

One experiment has as its target T1, TYK2 JH2 (Homo sapiens, UniProt P29597).
T1 construct: purchased DiscoverX (KINOMEscan KdELECT service); host or cells: E. coli BL21-derived (T7 phage display) or HEK-293
Nature of the experiment: TYK2 JH2 binding assay (KINOMEscan KdELECT competitive binding). The note with it: TYK2 JH2 domain, DiscoverX KINOMEscan KdELECT (Assay A); read-out: Biochemical TYK2_DiscoverX_JH2_BND_Kd. The essentials:
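Competition binding, KdELECT format. Kinase (phage-tagged, E. coli BL21-derived host; or HEK-293, DNA-tagged) + ligand-coated streptavidin beads + cpd, 1 h RT, final DMSO 0.9%. Wash, elute 30 min with 0.5 μM non-biotinylated ligand; qPCR readout. Kd: 11-pt, 3-fold series.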

Experiment [1] deals with JAK1/TYK2 pSTAT5 (Tyr694/699) in THP-1 cell line. The experiment can be described thus: IFNa-stimulated JAK1/TYK2 pSTAT5 (Tyr694/699) inhibition cellular assay, AlphaLISA. In kind it is cell-based. The conditions noted are these: Homo sapiens; THP-1 cells, IFNa-stimulated, AlphaLISA (Assay B); read-out: Cellular_THP1_IFNa-pSTATS_TYK2. The essentials:
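An eight-point 6-fold titration of compound (0.04–10000 nM final) is given to THP-1 cells for 1 h before 30 min of IFNa exposure. Phospho-STAT5 is read by AlphaLISA at 615 nm. IC50 values are derived by logistic regression with bottom set to 0 and Hill slope set to −1.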
On the technique in general: Alpha assays give light when donor and acceptor beads are brought close together.

T1 sequence (P29597 589-875 limits assumed): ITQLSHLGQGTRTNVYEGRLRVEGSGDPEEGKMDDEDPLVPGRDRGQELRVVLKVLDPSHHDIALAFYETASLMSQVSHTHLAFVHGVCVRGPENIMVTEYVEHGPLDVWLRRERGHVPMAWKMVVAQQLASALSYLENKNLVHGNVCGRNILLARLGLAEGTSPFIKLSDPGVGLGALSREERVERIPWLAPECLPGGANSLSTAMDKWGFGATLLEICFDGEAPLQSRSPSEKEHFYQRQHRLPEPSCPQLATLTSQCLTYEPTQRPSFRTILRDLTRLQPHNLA

For `CNc1ncc(-c2nc3cc(N4CC(C)(C)C4)ccc3o2)c2cc(NC(=O)C3CC3)ncc12` [Example 288, N-(5-(5-(3,3-dimethylazetidin-1-yl)benzo[d]oxazol-2-y1)-8-(methylamino)-2,7-naphthyridin-3-yl)cyclopropanecarboxamide], on TYK2 JH2, the Kd was at most 100 nM. Also, the IC50 in experiment [1] is at most 500 nM.
Consider `CNc1ncc(-c2nc3cc(N4CCO[C@@H](C)C4)ccc3o2)c2cc(NC(=O)C3CC3)ncc12` [Example 289, (S)—N-(8-(methylamino)-5-(5-(2-methylmorpholino)benzo[d]oxazol-2-yl)-2,7-naphthyridin-3-yl)cyclopropanecarboxamide], for which the Kd on TYK2 JH2 was at most 100 nM. In addition, in experiment [1], the IC50 was at most 500 nM.
The matching figures for `CNc1ncc(-c2nc3cc(N4CCC[C@@H](OC)C4)ccc3o2)c2cc(NC(=O)C3CC3)ncc12` [Example 290, (R)-N-(5-(5-(3-methoxypiperidin-1-yl)benzo[d]oxazol-2-yl)-8-(methylamino)-2,7-naphthyridin-3-yl)cyclopropanecarboxamide]: at most 100 nM and at most 500 nM.
The matching figures for `CNc1ncc(-c2nc3cc(N4CCC[C@H](OC)C4)ccc3o2)c2cc(NC(=O)C3CC3)ncc12` [Example 291, (S)-N-(5-(5-(3-methoxypiperidin-1-yl)benzo[d]oxazol-2-y1)-8-(methylamino)-2,7-naphthyridin-3-yl)cyclopropanecarboxamide]: at most 100 nM and at most 500 nM.
The matching figures for `CNc1ncc(-c2nc3cc(N4CCC[C@@H](C#N)C4)ccc3o2)c2cc(NC(=O)C3CC3)ncc12` [Example 292, (R)-N-(5-(5-(3-cyanopiperidin-1-yl)benzo[d]oxazol-2-y1)-8-(methylamino)-2,7-naphthyridin-3-yl)cyclopropanecarboxamide]: at most 100 nM and at most 500 nM.
As to `CNc1ncc(-c2nc3cc(N4CCC[C@H](C#N)C4)ccc3o2)c2cc(NC(=O)C3CC3)ncc12` [Example 293], the Kd on TYK2 JH2 is at most 100 nM. For the same compound, in experiment [1], the IC50 is at most 500 nM.
The matching figures for `CNc1ncc(-c2nc3cc(NCCOC)ccc3o2)c2cc(NC(=O)C3CC3)ncc12` [Example 294, N-(5-(5-((2-methoxyethyl)amino)benzo[d]oxazol-2-yl)-8-(methylamino)-2,7-naphthyridin-3-yl)cyclopropanecarboxamide]: at most 100 nM and at most 500 nM.
The matching figures for `CNc1ncc(-c2nc3cc(NC(C)=O)ccc3o2)c2cc(NC(=O)C3CC3)ncc12` [Example 295, N-(5-(5-acetamidobenzo[d]oxazol-2-yl)-8-(methylamino)-2,7-naphthyridin-3-yl)cyclopropanecarboxamide]: at most 100 nM and at most 500 nM.
The matching figures for `CNc1ncc(-c2nc3cc(N4CC5(COC5)C4)ccc3o2)c2cc(NC(=O)C3CC3)ncc12` [Example 296, N-(5-(5-(2-oxa-6-azaspiro[3.3]heptan-6-yl)benzo[d]oxazol-2-y1)-8-(methylamino)-2,7-naphthyridin-3-yl)cyclopropanecarboxamide]: at most 100 nM and at most 500 nM.
For `CNc1ncc(-c2nc3cc(N(C)C(C)=O)ccc3o2)c2cc(NC(=O)C3CC3)ncc12` [Example 297, N-(5-(5-(N-methylacetamido)benzo[d]oxazol-2-yl)-8-(methylamino)-2,7-naphthyridin-3-y1)cyclopropanecarboxamide], at TYK2 JH2, the Kd was at most 100 nM. The IC50 in experiment [1] was at most 500 nM.
The matching figures for `CNc1ncc(-c2nc3cc(N4C[C@@H]5C[C@H]4CO5)ccc3o2)c2cc(NC(=O)C3CC3)ncc12` [Example 298, N-(5-(5-((15,4S)-2-oxa-5-azabicyclo[2.2.1]heptan-5-yl)benzo[d]oxazol-2-y1)-8-(methylamino)-2,7-naphthyridin-3-yl)cyclopropanecarboxamide]: at most 100 nM and at most 500 nM.
The matching figures for `CNc1ncc(-c2nc3cc(N4C[C@H]5C[C@@H]4CO5)ccc3o2)c2cc(NC(=O)C3CC3)ncc12` [Example 299, N-(5-(5-((1R,4R)-2-oxa-5-azabicyclo[2.2.1]heptan-5-yl)benzo[d]oxazol-2-y1)-8-(methylamino)-2,7-naphthyridin-3-yl)cyclopropanecarboxamide]: at most 100 nM and at most 500 nM.
As to `CNc1ncc(-c2nc3cc(N4CC5(CN(C)C5)C4)ccc3o2)c2cc(NC(=O)C3CC3)ncc12` [Example 300, N-(5-(5-(6-methyl-2,6-diazaspiro[3.3]heptan-2-yl)benzo[d]oxazol-2-yl)-8-(methylamino)-2,7-naphthyridin-3-yl)cyclopropanecarboxamide], the Kd on TYK2 JH2 was at most 100 nM. The IC50 in experiment [1] was at most 500 nM.
In the case of `CNc1ncc(-c2nc3cc(N4CCC(F)(F)CC4)ccc3o2)c2cc(NC(=O)C3CC3)ncc12` [Example 301, N-(5-(5-(4,4-difluoropiperidin-1-yl)benzo[d]oxazol-2-y1)-8-(methylamino)-2,7-naphthyridin-3-yl)cyclopropanecarboxamide], on TYK2 JH2, the Kd was at most 100 nM. The IC50 in experiment [1] is at most 500 nM.
The matching figures for `CNc1ncc(-c2nc3cc(N4CCO[C@H](C)C4)ccc3o2)c2cc(NC(=O)C3CC3)ncc12` [Example 302, (R)-N-(8-(methylamino)-5-(5-(2-methylmorpholino)benzo[d]oxazol-2-yl)-2,7-naphthyridin-3-yl)cyclopropanecarboxamide]: at most 100 nM and at most 500 nM.
For the compound `CNc1ncc(-c2nc3cc(N4CCS(=O)(=O)CC4)ccc3o2)c2cc(NC(=O)C3CC3)ncc12` [Example 303, N-(5-(5-(1,1-dioxidothiomorpholino)benzo[d]oxazol-2-yl)-8-(methylamino)-2,7-naphthyridin-3-yl)cyclopropanecarboxamide], on TYK2 JH2, the Kd was at most 100 nM. For the same compound, in experiment [1], the IC50 is at most 500 nM.
The matching figures for `CNc1ncc(-c2nc3cc(N4CCN(C)CC4)ccc3o2)c2cc(NC(=O)C3CC3)ncc12` [Example 304, N-(8-(methylamino)-5-(5-(4-methylpiperazin-1-yI)benzo[d]oxazol-2-y1)-2,7-naphthyridin-3-yl)cyclopropanecarboxamide]: at most 100 nM and at most 500 nM.
`CNc1ncc(-c2nc3cc(N4CC5CCC(C4)O5)ccc3o2)c2cc(NC(=O)C3CC3)ncc12` [Example 305]: the Kd on TYK2 JH2 is at most 100 nM. Further, the IC50 in experiment [1] was at most 500 nM.
The matching figures for `CNc1ncc(-c2nc3cc(N4C[C@H]5COC[C@H]5C4)ccc3o2)c2cc(NC(=O)C3CC3)ncc12` [Example 306, N-(8-(methylamino)-5-(5-((3aR,6a.S)-tetrahydro-1H-furo[3,4-c]pyrrol-5(3H)-yl)benzo[d]oxazol-2-y1)-2,7-naphthyridin-3-yl)cyclopropanecarboxamide]: at most 100 nM and at most 500 nM.
The matching figures for `CNc1ncc(-c2nc3cc(N4CCN(c5ccncc5)CC4)ccc3o2)c2cc(NC(=O)C3CC3)ncc12` [Example 307, N-(8-(methylamino)-5-(5-(4-(pyridin-4-yl)piperazin-1-yl)benzo[d]oxazol-2-yl)-2,7-naphthyridin-3-yl)cyclopropanecarboxamide]: at most 100 nM and at most 500 nM.
As for `CNc1ncc(-c2nc3cc(N4CCOC[C@@H]4C)ccc3o2)c2cc(NC(=O)C3CC3)ncc12` [Example 308, (S)-N-(8-(methylamino)-5-(5-(3-methylmorpholino)benzo[d]oxazol-2-yl)-2,7-naphthyridin-3-yl)cyclopropanecarboxamide], the Kd at TYK2 JH2 was at most 100 nM. For the same compound, in experiment [1], the IC50 is at most 500 nM.
The matching figures for `CNc1ncc(-c2nc3cc(N4CCOC[C@H]4C)ccc3o2)c2cc(NC(=O)C3CC3)ncc12` [Example 309, (R)-N-(8-(methylamino)-5-(5-(3-methylmorpholino)benzo[d]oxazol-2-yl)-2,7-naphthyridin-3-yl)cyclopropanecarboxamide]: at most 100 nM and at most 500 nM.
The matching figures for `CNc1ncc(-c2nc3cc(N4CCC5(CC4)COC5)ccc3o2)c2cc(NC(=O)C3CC3)ncc12` [Example 310, N-(5-(5-(2-oxa-7-azaspiro[3.5]nonan-7-yl)benzo[d]oxazol-2-y1)~8-(methylamino)-2,7-naphthyridin-3-yl)cyclopropanecarboxamide]: at most 100 nM and at most 500 nM.
`CNc1ncc(-c2nc3cc(N4C5CCC4COC5)ccc3o2)c2cc(NC(=O)C3CC3)ncc12` [Example 311, N-(5-(5-(3-oxa-8-azabicyclo[3.2.1]octan-8-yl)benzo[d]oxazol-2-y1)-8-(methylamino)-2,7-naphthyridin-3-yl)cyclopropanecarboxamide]: the Kd on TYK2 JH2 was at most 100 nM. For the same compound, the IC50 in experiment [1] is at most 500 nM.
In the case of `CNc1ncc(-c2nc3cc(OC4(C)COC4)ccc3o2)c2cc(NC(=O)C3CC3)ncc12` [Example 312, N-(8-(methylamino)-5-(5-((3-methyloxetan-3-yl)oxy)benzo[d]oxazol-2-yl)-2,7-naphthyridin-3-yl)cyclopropanecarboxamide], the Kd at TYK2 JH2 is at most 100 nM. The IC50 in experiment [1] is at most 500 nM.
Regarding `CNc1ncc(-c2nc3cc(N4CCCC5(CCO5)C4)ccc3o2)c2cc(NC(=O)C3CC3)ncc12` (stereo not shown) [Example 313, N-(5-(5-(1-oxa-6-azaspiro[3.5]nonan-6-yl)benzo[d]oxazol-2-yl)-8-(methylamino)-2,7-naphthyridin-3-yl)cyclopropanecarboxamide], on TYK2 JH2, the Kd is at most 100 nM. Further, in experiment [1], the IC50 is at most 500 nM.
